Results: article PMC7753147, “High-throughput determination of protein affinities using unmodified peptide libraries in nanomolar scale” (iScience, 2020)

How the values were obtained:
gephE = test: µSPOT peptide microarray binding assay with recombinant gephE; conditions: normalized to most prominent spot, n = 2 array-internal duplicate
native geph = test: µSPOT peptide microarray binding assay with native geph from mouse brain lysate; conditions: normalized to most prominent spot, n = 2 array-internal duplicate
[1] = overlapping GABAAR α3 peptide library on µSPOT array, 20 nM gephE
[2] = overlapping GABAAR α3 peptide library on µSPOT array, 6% mouse brain lysate
[3] = overlapping GlyR β peptide library on µSPOT array, 50 nM gephE, anti-gephyrin 3B11/HRP chemiluminescence
[4] = overlapping GlyR β peptide library on µSPOT array, 3% mouse brain lysate

Sequence	gephE Binding Intensity [norm.] (gephE; [1])	Native geph Binding Intensity [norm.] (native geph; [2])	gephE Binding Intensity [norm.] (gephE; [3])	Native geph Binding Intensity [norm.] (native geph; [4])
AAPSASSTPTAIASPKATYV [GABAAR α3 residues 420-439, µSpot library]	0.038 norm.	0.080 norm.		
ADGKGGNAAKKNTVNGTGTP [Glycine receptor subunit beta_009]			0.015 norm.	0.067 norm.
AEQADGKGGNAAKKNTVNGT [Glycine receptor subunit beta_008, GlyR β residues 370-389]			0.023 norm.	0.065 norm.
APTKKNTTFNIVGTTYPINL [GABAAR α3 residues 387-406, µSpot library]	1.000 norm.	0.767 norm.		
ASPKATYVQDSPAETKTYNS [GABAAR α3 residues 432-451, µSpot library]	0.020 norm.	0.050 norm.		
EAEKARIAKAEQADGKGGNA [Glycine receptor subunit beta_005, GlyR β residues 361-380]			0.024 norm.	0.113 norm.
EFSTISKSAAAPSASSTPTA [GABAAR α3 residues 411-430, µSpot library]	0.028 norm.	0.127 norm.		
GTTYPINLAKDTEFSTISKS [GABAAR α3 residues 399-418, µSpot library]	0.030 norm.	0.098 norm.		
IAKAEQADGKGGNAAKKNTV [Glycine receptor subunit beta_007]			0.025 norm.	0.066 norm.
KARIAKAEQADGKGGNAAKK [Glycine receptor subunit beta_006, GlyR β residues 364-383]			0.040 norm.	0.091 norm.
KATYVQDSPAETKTYNSVSK [GABAAR α3 residues 435-454, µSpot library]	0.070 norm.	0.059 norm.		
KDTEFSTISKSAAAPSASST [GABAAR α3 residues 408-427, µSpot library]	0.020 norm.	0.136 norm.		
KKKTPAAPTKKNTTFNIVGT [GABAAR α3 residues 381-400, µSpot library]	0.053 norm.	0.115 norm.		
KKNTTFNIVGTTYPINLAKD [GABAAR α3 residues 390-409, µSpot library]	0.443 norm.	0.243 norm.		
KKVPEALEMKKKTPAAPTKK [GABAAR α3 residues 372-391, µSpot library]	0.038 norm.	0.081 norm.		
KRVEAEKARIAKAEQADGKG [Glycine receptor subunit beta_004]			0.052 norm.	0.117 norm.
KSAAAPSASSTPTAIASPKA [GABAAR α3 residues 417-436, µSpot library]	0.030 norm.	0.103 norm.		
LEMKKKTPAAPTKKNTTFNI [GABAAR α3 residues 378-397, µSpot library]	0.059 norm.	0.085 norm.		
NIVGTTYPINLAKDTEFSTI [GABAAR α3 residues 396-415, µSpot library]	0.044 norm.	0.114 norm.		
NLAKDTEFSTISKSAAAPSA [GABAAR α3 residues 405-424, µSpot library]	0.029 norm.	0.122 norm.		
NNPKRVEAEKARIAKAEQAD [Glycine receptor subunit beta_003, GlyR β residues 355-374]			0.023 norm.	0.109 norm.
NYFTKRSWAWEGKKVPEALE [GABAAR α3 residues 360-379, µSpot library]	0.062 norm.	0.048 norm.		
PEALEMKKKTPAAPTKKNTT [GABAAR α3 residues 375-394, µSpot library]	0.038 norm.	0.071 norm.		
SASSTPTAIASPKATYVQDS [GABAAR α3 residues 423-442, µSpot library]	0.022 norm.	0.075 norm.		
STPTAIASPKATYVQDSPAE [GABAAR α3 residues 426-445, µSpot library]	0.019 norm.	0.067 norm.		

Further lines, results first:

gephE Binding Intensity [norm.] (gephE; [1])	Native geph Binding Intensity [norm.] (native geph; [2])	gephE Binding Intensity [norm.] (gephE; [3])	Native geph Binding Intensity [norm.] (native geph; [4])	Sequence
		0.645 norm.	0.379 norm.	CTSKSDLRSNDFSIVGSLPR [Glycine receptor subunit beta_021, GlyR β residues 409-428]
		0.049 norm.	0.093 norm.	DCYGKPIEVNNGLGKPQAKN [Glycine receptor subunit beta_030, GlyR β residues 436-455]
		0.112 norm.	0.180 norm.	FELSNYDCYGKPIEVNNGLG [Glycine receptor subunit beta_028, GlyR β residues 430-449]
		0.036 norm.	0.069 norm.	GKPIEVNNGLGKPQAKNKKP [Glycine receptor subunit beta_031, GlyR β residues 439-458]
		0.132 norm.	0.134 norm.	GSLPRDFELSNYDCYGKPIE [Glycine receptor subunit beta_026, GlyR β residues 424-443]
		0.044 norm.	0.068 norm.	GTGTPVHISTLQVGETRCKK [Glycine receptor subunit beta_014, GlyR β residues 388-407]
		0.042 norm.	0.042 norm.	HISTLQVGETRCKKVCTSKS [Glycine receptor subunit beta_016, GlyR β residues 394-413]
		0.009 norm.	0.075 norm.	IEVNNGLGKPQAKNKKPPPA [Glycine receptor subunit beta_032, GlyR β residues 442-461]
		0.024 norm.	0.077 norm.	KGGNAAKKNTVNGTGTPVHI [Glycine receptor subunit beta_010]
		0.023 norm.	0.085 norm.	KKNTVNGTGTPVHISTLQVG [Glycine receptor subunit beta_012]
		0.393 norm.	0.309 norm.	KKVCTSKSDLRSNDFSIVGS [Glycine receptor subunit beta_020, GlyR β residues 406-425]
		0.016 norm.	0.068 norm.	KNKKPPPAKPVIPTAAKRID [Glycine receptor subunit beta_036, GlyR β residues 454-473]
		0.037 norm.	0.075 norm.	KPPPAKPVIPTAAKRIDL [Glycine receptor subunit beta_037, GlyR β residues 457-474]
		0.972 norm.	0.945 norm.	KSDLRSNDFSIVGSLPRDFE [Glycine receptor subunit beta_022, GlyR β residues 412-431]
		0.022 norm.	0.061 norm.	LGKPQAKNKKPPPAKPVIPT [Glycine receptor subunit beta_034, GlyR β residues 448-467]
		1.000 norm.	1.000 norm.	LRSNDFSIVGSLPRDFELSN [Glycine receptor subunit beta_023, GlyR β residues 415-434]
		0.011 norm.	0.077 norm.	NAAKKNTVNGTGTPVHISTL [Glycine receptor subunit beta_011, GlyR β residues 379-398]
		0.599 norm.	0.561 norm.	NDFSIVGSLPRDFELSNYDC [Glycine receptor subunit beta_024, GlyR β residues 418-437]
		0.055 norm.	0.041 norm.	NNGLGKPQAKNKKPPPAKPV [Glycine receptor subunit beta_033, GlyR β residues 445-464]
		0.012 norm.	0.087 norm.	PQAKNKKPPPAKPVIPTAAK [Glycine receptor subunit beta_035, GlyR β residues 451-470]
		0.428 norm.	0.521 norm.	PRDFELSNYDCYGKPIEVNN [Glycine receptor subunit beta_027, GlyR β residues 427-446]
		0.291 norm.	0.301 norm.	SIVGSLPRDFELSNYDCYGK [Glycine receptor subunit beta_025, GlyR β residues 421-440]
		0.216 norm.	0.204 norm.	SNYDCYGKPIEVNNGLGKPQ [Glycine receptor subunit beta_029, GlyR β residues 433-452]
0.064 norm.	0.118 norm.			SWAWEGKKVPEALEMKKKTP
